Laboratory results as given in patent US20230312578A1, “6H-INDOLO[2,3-B]QUINOXALINE DERIVATIVES USEFUL IN THERAPY” (Vironova Medical AB, priority 2020, published 2023).
Where two headings read alike, the source gives them in different places.

Key:
Type in all cases: cell-based
[1] = tested on: ACHN; assay: Human tumor cell line growth assay (SRB); details: Renal, 48 h; for CC50: read-out: LC50 (the source's name)
[2] = Human tumor cell line growth assay (SRB); details: human, HCC-2998 cells (colon), HCC-2998, 48 h, read-out: LC50
[3] = tested on: HCC-2998; assay: Human tumor cell line growth assay (SRB); details: Homo sapiens; Colon, HCC-2998, 48 h
[4] = Human tumor cell line growth assay (SRB); details: human, NCI-H522 cells (NSCLC), NCI-H522, 48 h
[5] = tested on: NCI-H522; assay: Human tumor cell line growth assay (SRB); details: Homo sapiens; NSCLC, NCI-H522, 48 h
[6] = tested on: IGR-OV1; assay: Human tumor cell line growth assay (SRB); details: Homo sapiens, IGROV-1; Ovarian, IGR-OV1, 48 h
[7] = Human tumor cell line growth assay (SRB); details: human, IGR-OV1 cells (ovarian), IGR-OV1, 48 h, read-out: LC50
[8] = tested on: TK-10; assay: Human tumor cell line growth assay (SRB); details: Renal, TK-10, 48 h; for CC50: read-out: LC50 (the source's name)
[9] = Human tumor cell line growth assay (SRB); details: human, MDA-MB-435 cells (melanoma), MDA-MB-435, 48 h, read-out: LC50
[10] = tested on: MDA-MB-435; assay: Human tumor cell line growth assay (SRB); details: Homo sapiens; Melanoma, MDA-MB-435, 48 h
[11] = tested on: A498; assay: Human tumor cell line growth assay (SRB); details: Renal, A498, 48 h; for CC50: read-out: LC50 (the source's name)
[12] = tested on: SF-268; assay: Human tumor cell line growth assay (SRB); details: Homo sapiens; CNS, SF-268, 48 h
[13] = Human tumor cell line growth assay (SRB); details: human, SF-268 cells (CNS), SF-268, 48 h
[14] = tested on: CCRF-CEM; assay: Human tumor cell line growth assay (SRB); details: Leukemia, 48 h; for CC50: read-out: LC50 (the source's name)
[15] = tested on: HOP-92; assay: Human tumor cell line growth assay (SRB); details: Homo sapiens; NSCLC, HOP-92, 48 h
[16] = Human tumor cell line growth assay (SRB); details: human, HOP-92 cells (NSCLC), HOP-92, 48 h
[17] = tested on: MCF7; assay: Human tumor cell line growth assay (SRB); details: Breast, MCF7, 48 h; for CC50: read-out: LC50 (the source's name)
[18] = tested on: SW-620; assay: Human tumor cell line growth assay (SRB); details: Homo sapiens; Colon, SW-620, 48 h
[19] = Human tumor cell line growth assay (SRB); details: human, SW-620 cells (colon), SW-620, 48 h
[20] = tested on: MALME-3M; assay: Human tumor cell line growth assay (SRB); details: Homo sapiens, Melanoma, 48 h
[21] = Human tumor cell line growth assay (SRB); details: human, MALME-3M cells (melanoma), read-out: LC50
[22] = Human tumor cell line growth assay (SRB); details: human, SK-MEL-28 cells (melanoma), SK-MEL-28, 48 h, read-out: LC50
[23] = tested on: SK-MEL-28; assay: Human tumor cell line growth assay (SRB); details: Homo sapiens; Melanoma, SK-MEL-28, 48 h
[24] = Human tumor cell line growth assay (SRB); details: human, OVCAR-3 cells (ovarian), OVCAR-3, 48 h, read-out: LC50
[25] = tested on: OVCAR-3; assay: Human tumor cell line growth assay (SRB); details: Homo sapiens; Ovarian, OVCAR-3, 48 h
[26] = Human tumor cell line growth assay (SRB); details: human, SNB-19 cells (CNS), SNB-19, 48 h, read-out: LC50
[27] = tested on: SNB-19; assay: Human tumor cell line growth assay (SRB); details: Homo sapiens; CNS, SNB-19, 48 h
[28] = Human tumor cell line growth assay (SRB); details: human, U251 cells (CNS), U251, 48 h, read-out: LC50
[29] = tested on: U251; assay: Human tumor cell line growth assay (SRB); details: Homo sapiens, U-251; CNS, U251, 48 h
[30] = tested on: PC-3; assay: Human tumor cell line growth assay (SRB); details: Prostate, PC-3, 48 h; for CC50: read-out: LC50 (the source's name)
[31] = Human tumor cell line growth assay (SRB); details: human, HCT-116 cells (colon), HCT-116, 48 h, read-out: LC50
[32] = tested on: HCT-116; assay: Human tumor cell line growth assay (SRB); details: Homo sapiens; Colon, HCT-116, 48 h
[33] = tested on: SK-OV-3; assay: Human tumor cell line growth assay (SRB); details: Ovarian, SK-OV-3, 48 h; for CC50: read-out: LC50 (the source's name)
[34] = tested on: T-47D; assay: Human tumor cell line growth assay (SRB); details: T47D, Breast, 48 h; for CC50: read-out: LC50 (the source's name)
[35] = tested on: A549/ATCC; assay: Human tumor cell line growth assay (SRB); details: Homo sapiens, NSCLC, 48 h
[36] = Human tumor cell line growth assay (SRB); details: human, A549/ATCC cells (NSCLC), read-out: LC50
[37] = tested on: Human tumor cell lines; assay: Human tumor cell line growth assay (SRB), summary over the panel; details: overall over the panel

Cc1cc2nc3c4ccccc4n(CCN(C)C)c3nc2cc1C [B220, 2-(2,3-dimethyl-6H-indolo [2,3-b]quinoxalin-6-yl)-N,N-dimethylethanamine, reference compound]
GI50 [1]: 555 nM
CC50 [1]: 42200 nM
CC50 at 48 h [2]: 15700 nM
GI50 [3]: 1470 nM
LC50 at 48 h [4]: > 100000 nM
GI50 [5]: 673 nM
GI50 [6]: 1280 nM
CC50 at 48 h [7]: 72400 nM
GI50 [8]: 2970 nM
CC50 [8]: 71400 nM
CC50 at 48 h [9]: 7490 nM
GI50 [10]: 1610 nM
GI50 [11]: 1430 nM
CC50 [11]: 5740 nM
GI50 [12]: 1450 nM
LC50 (50% lethal concentration) at 48 h [13]: 28000 nM
GI50 [14]: 1990 nM
CC50 [14]: > 100000 nM
GI50 [15]: 1360 nM
LC50 at 48 h [16]: > 100000 nM
GI50 [17]: 1410 nM
CC50 [17]: 34800 nM
GI50 [18]: 540 nM
LC50 (50% lethal concentration) at 48 h [19]: 35000 nM
GI50 [20]: 1410 nM
CC50 at 48 h [21]: 53300 nM
CC50 at 48 h [22]: 9450 nM
GI50 [23]: 2090 nM
CC50 at 48 h [24]: 56800 nM
GI50 [25]: 1910 nM
CC50 at 48 h [26]: 68600 nM
GI50 [27]: 2330 nM
CC50 at 48 h [28]: 44600 nM
GI50 [29]: 2010 nM
GI50 [30]: 2010 nM
CC50 [30]: > 100000 nM
CC50 at 48 h [31]: 44500 nM
GI50 [32]: 488 nM
GI50 [33]: 3100 nM
CC50 [33]: > 100000 nM
GI50 [34]: 2800 nM
CC50 [34]: > 100000 nM
GI50 [35]: 1280 nM
CC50 at 48 h [36]: > 100000 nM

Cc1cc2nc3c4cc(O)ccc4n(CCN(C)C)c3nc2cc1C [JBD-139, 6-(2-(dimethylamino)ethyl)-2,3-dimethyl-6H-indolo [2,3-b]quinoxalin-9-ol]
GI50 [1]: 307 nM
GI50 [3]: 750 nM
LC50 at 48 h [4]: > 100000 nM
GI50 [5]: 390 nM
GI50 [6]: 392 nM
CC50 at 48 h [7]: 98200 nM
GI50 [8]: 1740 nM
CC50 [8]: > 100000 nM
GI50 [10]: 529 nM
GI50 [11]: 948 nM
CC50 [11]: 5690 nM
GI50 [12]: 822 nM
LC50 (50% lethal concentration) at 48 h [13]: > 100000 nM
GI50 [14]: 468 nM
CC50 [14]: > 100000 nM
GI50 [15]: 246 nM
LC50 at 48 h [16]: > 100000 nM
GI50 [17]: 351 nM
CC50 [17]: > 100000 nM
cytotoxicity, comparison in words [37]: cytotoxicity that is higher
GI50 [18]: 320 nM
GI50 [20]: 623 nM
GI50 [23]: 1500 nM
GI50 [25]: 970 nM
CC50 at 48 h [26]: > 100000 nM
GI50 [27]: 423 nM
GI50 [29]: 356 nM
GI50 [30]: 491 nM
GI50 [32]: 326 nM
GI50 [33]: 1160 nM
CC50 [33]: > 100000 nM
GI50 [34]: 686 nM
GI50 [35]: 358 nM

COc1ccc2c(c1)c1nc3cc(C)c(C)cc3nc1n2CCN(C)C [JBA-094, 2-(9-methoxy-2,3-dimethyl-6H-indolo[2,3-b]quinoxalin-6-yl)-N,N-dimethylethanamine]
GI50 [1]: 358 nM
CC50 [1]: 3960 nM
CC50 at 48 h [2]: 6320 nM
GI50 [3]: 1080 nM
LC50 at 48 h [4]: > 100000 nM
GI50 [5]: 515 nM
GI50 [6]: 396 nM
CC50 at 48 h [7]: 5410 nM
GI50 [8]: 1960 nM
CC50 [8]: 6920 nM
CC50 at 48 h [9]: 6030 nM
GI50 [10]: 1110 nM
GI50 [11]: 1480 nM
CC50 [11]: 5560 nM
GI50 [12]: 1330 nM
LC50 (50% lethal concentration) at 48 h [13]: 8230 nM
GI50 [14]: 795 nM
CC50 [14]: > 100000 nM
GI50 [15]: 238 nM
LC50 at 48 h [16]: 6080 nM
GI50 [17]: 332 nM
CC50 [17]: 4790 nM
GI50 [18]: 454 nM
LC50 (50% lethal concentration) at 48 h [19]: 5530 nM
GI50 [20]: 1110 nM
CC50 at 48 h [21]: 5770 nM
CC50 at 48 h [22]: 6760 nM
GI50 [23]: 1790 nM
CC50 at 48 h [24]: 6130 nM
GI50 [25]: 1260 nM
CC50 at 48 h [26]: 6340 nM
GI50 [27]: 719 nM
CC50 at 48 h [28]: 6090 nM
GI50 [29]: 526 nM
GI50 [30]: 1120 nM
CC50 [30]: 5840 nM
CC50 at 48 h [31]: 6590 nM
GI50 [32]: 312 nM
GI50 [33]: 1500 nM
CC50 [33]: 7170 nM
GI50 [34]: 1320 nM
CC50 [34]: > 100000 nM
GI50 [35]: 482 nM
CC50 at 48 h [36]: 7970 nM
